Results on one compound are retold here after paper PMC5444705 (Oncotarget, 2017).

The test system of data set [1] is Hep3B cells. As to the kind of experiment: MTT assay, Hep3B. The settings on record: Homo sapiens. Format: cell-based. As for the experimental part:
(§1) HepG2, Hep3B, Huh7 or L02 cells were seeded in 96-well plates at a density of 5 × 10^3 cells per well. […] After 24 and 48 h of co-incubation, used media were removed and cells were washed twice with PBS. Fresh medium containing 20 μl of MTT ([…]) was added in and cells were cultured for an additional 4 h at 37°C in a 5% CO2incubator. After that, media were removed and 200 μl of DMSO was added in. The optical density value was determined by the microplate reader (Multiskan MK3, Thermo Fisher Scientific, Atlanta, GA, USA) at 492 nm.

In data set [2] the test system is HepG2 cells. As to the kind of experiment: MTT assay, HepG2. Format: cell-based. The conditions noted are these: Homo sapiens. As for the experimental part:
as §1
(Tetrazolium assays rely on reduction of a dye to a coloured formazan, in cell work by metabolically active cells.)

In data set [3] the test system is Huh7 cells. Description: MTT assay, Huh7. The data set is classed as cell-based. The conditions noted are these: Homo sapiens. As for the experimental part:
as §1

The test system of data set [4] is L02 cells. As to the kind of experiment: MTT assay, L02. The data set is classed as cell-based. The conditions noted are these: Homo sapiens. As for the experimental part: as §1
For data set [5], the system named is HepG2 xenograft tumor. As to the kind of experiment: Anti-tumor efficacy in HepG2 xenograft tumor mouse model. Format: in vivo, Balb/C nude mice. The settings on record: tail vein injection, 4 mg/kg (WCN-21), 25th day after injection. As for the experimental part: Tumor volume and mouse body weights were recorded during drug administration period. The mice were sacrificed at 25th day after the injection and tumors were collected for histology examination.
For the efficacy study, 4 × 10^6 HepG2 cells were injected in the front armpit of the Balb/C nude mice. […] The tumor sizes were measured every other day and any death of the mice was recorded. […] TUNEL, Ki67 and hematoxylin and eosin (H&E) staining were performed by using the resected tumor tissue from mice for efficacy study. The tissue sections were examined and photographed with a microscope (Olympus SZX12, Japan) connected to a PC.

For data set [6] the following is noted: mouse, in vivo, 4 mg/kg. As for the experimental part:
To determine the toxicity of WND and WNP, we collected tissues from the mice used in efficacy study for histological analysis. […] For the efficacy study, 4 × 10^6 HepG2 cells were injected in the front armpit of the Balb/C nude mice. […] The tumor sizes were measured every other day and any death of the mice was recorded. […] TUNEL, Ki67 and hematoxylin and eosin (H&E) staining were performed by using the resected tumor tissue from mice for efficacy study. The tissue sections were examined and photographed with a microscope (Olympus SZX12, Japan) connected to a PC.

Like-named read-outs stand apart in the source and are kept apart here.

In the case of `CC[C@@]1(O)C(=O)OCc2c1cc1n(c2=O)Cc2cc3c(CN(C)C)c(O)ccc3nc2-1` [Topotecan], the IC50 in data set [1] (24 h) came out at 462 ± 20 nM; in data set [1] (48 h), 112 ± 2.4 nM; in data set [2] (HepG2, 24 h), 1590 ± 20.6 nM; in data set [2] (HepG2, 48 h), 285 ± 9 nM; in data set [3] (Huh 7, 24 h), 500 ± 69 nM; in data set [3] (Huh 7, 48 h) it was 117 ± 48 nM. For the same compound, the 50% inhibitory concentration (IC50) in data set [4] (L02, 24 or 48 h, time not specified, read-out: IC50 in L02 cells) is more than 500 nM; in data set [4] (L02, 24 h, MTT, read-out: IC50), more than 500 nM; in data set [4] (L02, 48 h, MTT, read-out: IC50), more than 500 nM. For the same compound, the “Tumor size at 25th day” value in data set [5] came out at 837 mm^3. In addition, the Body weight change entry in data set [6] is listed as “significant body weight loss”. In data set [6], the “Histological analysis of hearts, livers, spleens, lungs and kidneys” value was “myocardial fiber fracture and cardiocytes necrosis in hearts, inflammatory infiltration in livers, atrophied white pulp in spleens and disorganization of renal corpuscles in kidneys”.

Usually IC50 stands for the concentration that gives 50% inhibition.
